Counter-ions that a name gives are not always drawn.
Tests used:
human B1R = target: T1, human B1R (Homo sapiens, UniProt P46663); assay: Functional investigation on the bradykinin 1 receptor (B1R), cell-based fluorescent calcium-mobilization assay (FLIPR/Novostar), human; conditions: 10 μM test substance, CHO K1 cells stably transfected with human B1R gene, agonist Lys-Des-Arg9-bradykinin at EC80, % inhibition compared with maximum achievable inhibition; for inhibition at 10 µM: read-out: B1R antagonism, human [10 μM] % inhibition
T1 construct: expressed in transfected cells; host or cells: CHO K1 cells
T1 sequence (P46663 1-353): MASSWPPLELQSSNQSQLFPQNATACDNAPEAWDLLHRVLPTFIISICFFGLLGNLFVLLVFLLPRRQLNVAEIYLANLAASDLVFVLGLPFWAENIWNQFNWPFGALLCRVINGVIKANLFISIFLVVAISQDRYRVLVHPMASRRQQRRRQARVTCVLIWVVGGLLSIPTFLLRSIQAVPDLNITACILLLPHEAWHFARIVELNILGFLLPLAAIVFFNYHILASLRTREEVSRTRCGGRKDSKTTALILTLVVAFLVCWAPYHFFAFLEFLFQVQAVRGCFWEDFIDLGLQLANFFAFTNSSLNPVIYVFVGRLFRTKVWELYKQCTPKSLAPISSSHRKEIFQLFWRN
Description: (§1) The agonistic or antagonistic action of substances can be quantified on the bradykinin 1 receptor (B1R) of the human and rat species with ectopically expressing cell lines (CHO K1 cells) and with the aid of a Ca^2+-sensitive dyestuff (Fluo-4) in a fluorescent imaging plate reader (FLIPR). The figure in % activation is based on the Ca^2+ signal after addition of Lys-Des-Arg^9-bradykinin (0.5 nM) or Des-Arg^9-bradykinin (100 nM). Antagonists lead to a suppression of the Ca^2+ inflow after addition of the agonist. % inhibition compared with the maximum achievable inhibition is stated.
(§2) The agonistic or antagonistic action of substances can be determined on the bradykinin 1 receptor (B1R) of humans and rats by means of a cell-based flourescent calcium-mobilization assay. According to this assay agonist-induced increase of intracellular free Ca^2+ is quantified by means of a Ca^2+-sensitive dye (Fluo-4 type, Molecular Probes Europe BV, Leiden, Netherlands), in a Fluorescent Imaging Plate Reader (FLIPR, Molecular Devices, Sunnyvale, USA) and/or the Novostar (BMG Labtech GmbH, Offenburg, Germany).
(§3) Chinese hamster ovary cells (CHO K1 cells), which are stably transfected with the human B1R gene (hB1R cells) or with the B1R gene of rats (rB1R cells), are used. For functional investigations these cells are seeded into black 96-well plates with a clear bottom (BD Biosciences, Heidelberg, Germany or Greiner, Frickenhausen, Germany) in a density of 20,000-35,000 cells/well. The cells are incubated overnight in a humidified atmosphere at 37° C. and 5% CO2 in culture medium (hB1R cells: Nutrient Mixture Ham's F12, Gibco Invitrogen GmbH, Karlsruhe, Germany or DMEM, Sigma-Aldrich, Taufkirchen, Germany; rB1R cells: D-MEM/F12, Gibco Invitrogen GmbH, Karlsruhe, Germany) with 10 vol. % FBS (foetal bovine serum, Gibco Invitrogen GmbH, Karlsruhe, Germany).
(§4) On the following day the cells are loaded with the Ca^2+-sensitive dye Fluo-4-AM (Molecular Probes Europe BV, Leiden, Netherlands):
(§5) Method A: The medium of the cells is removed and cell plates are incubated with loading solution, which contains 2.13 μM Fluo-4-AM, 2.5 mM probenecid (Sigma-Aldrich, Taufkirchen, Germany), and 10 mM HEPES (Sigma-Aldrich, Taufkirchen, Germany) in HBSS buffer (Hank's buffered saline solution, Gibco Invitrogen GmbH, Karlsruhe, Germany) for 60 minutes at 37° C. After the plates are washed twice with HBSS buffer, HBSS buffer supplemented 0.1% BSA (bovine serum albumin; Sigma-Aldrich, Taufkirchen, Germany), 5.6 mM glucose and 0.05% gelatine (Merck KGaA, Darmstadt, Germany) is added. Cell plates are incubated for at least 20 minutes in the dark at room temperature before they are used for the Ca^2+ measurement in the FLIPR or Novostar.
(§6) Method B: The plates are washed with buffer A (15 mM HEPES, 80 mM NaCl, 5 mM KCl, 1.2 mM CaCl2, 0.7 mM MgSO4, 2 mg/ml glucose, 2.5 mM probenecid) and subsequently loaded with buffer A containing 2.4 μM Fluo-4-AM and 0.025% pluronic F127 (Sigma-Aldrich, Taufkirchen, Germany) for 60 minutes at 37° C. Cell plates are washed twice with buffer A. Then, buffer A supplemented with 0.05% BSA and 0.05% gelatine is added and cell plates are incubated in the dark at room temperature for at least 20 minutes before measurement in the FLIPR or Novostar is started.
(§7) The Ca^2+-dependent fluorescence is measured both before and after the addition of substances (λex=488 nm, λem=540 nm). For quantification of the effect the highest fluorescence intensity (FC, fluorescence counts) over time is given. The FLIPR protocol consists of two substance additions, done within the instrument while continuously monitoring the Ca^2+-dependent fluorescence at 540 nm. When the Novostar was used, one addition had to be done outside the instrument. Test substances (10 μM) are initially pipetted onto the cells and the intracellular Ca^2+ rise is compared with the control (hB1R: Lys-Des-Arg9-bradykinin>=50 nM; rB1R: Des-Arg9-bradykinin>=1 μM). […]

B1R of rats = target: T2, B1R of rats (Rattus norvegicus, UniProt P97583); assay: Functional investigation on the bradykinin 1 receptor (B1R), cell-based fluorescent calcium-mobilization assay (FLIPR/Novostar), rat; conditions: 10 μM test substance, CHO K1 cells stably transfected with rat B1R gene, agonist Des-Arg9-bradykinin at EC80, % inhibition compared with maximum achievable inhibition; for inhibition at 10 µM: read-out: B1R antagonism, rat [10 μM] % inhibition
T2 construct: expressed in transfected cells; host or cells: CHO K1 cells
T2 sequence (P97583 1-337): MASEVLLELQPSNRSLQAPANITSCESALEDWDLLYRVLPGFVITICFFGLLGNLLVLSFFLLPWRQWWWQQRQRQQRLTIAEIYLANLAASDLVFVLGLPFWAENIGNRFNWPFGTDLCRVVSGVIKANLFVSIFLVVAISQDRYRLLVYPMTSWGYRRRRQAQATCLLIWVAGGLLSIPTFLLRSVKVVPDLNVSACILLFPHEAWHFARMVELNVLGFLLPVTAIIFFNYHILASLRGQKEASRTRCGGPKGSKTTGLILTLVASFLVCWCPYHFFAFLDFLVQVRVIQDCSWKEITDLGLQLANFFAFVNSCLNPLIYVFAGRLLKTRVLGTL
Description: as §1, §2, §3, §4, §5, §6, §7

Compound | inhibition at 10 µM (human B1R) [%] | inhibition at 10 µM (B1R of rats) [%] | B1R antagonism, human [10 μM] % inhibition (human B1R; hydrochloride, 10 µM) [%] | B1R antagonism, rat [10 μM] % inhibition (B1R of rats; hydrochloride, 10 µM) [%]
COc1cc(C)c(S(=O)(=O)N(C)CCOCC(=O)N2CCC(CNC(=O)c3ccccn3)(N3CCN(C)CC3)CC2)c(C)c1 [Example 25, N-((1-(2-(2-(4-methoxy-N,2,6-trimethylphenylsulfonamido)ethoxy)acetyl)-4-(4-methylpiperazin-1-yl)piperidin-4-yl)methyl)picolinamide] | 103 | 101 | – | –
CN1CCN(C2(CNC(=O)c3ccccn3)CCN(C(=O)COCC3CCc4ccccc4N3S(=O)(=O)c3ccc(Cl)c(Cl)c3)CC2)CC1 (centres unmarked) [Example 20, N-((1-(2-((1-(3,4-dichlorophenylsulfonyl)-1,2,3,4-tetrahydroquinolin-2-yl)-methoxy)acetyl)-4-(4-methylpiperazin-1-yl)piperidin-4-yl)methyl)picolinamide] | 91 | 60 | – | –
CC(=O)NCC1(N2CCN(c3ccncc3)CC2)CCN(C(=O)CC(NS(=O)(=O)c2ccc3ccccc3c2)c2ccccc2)CC1 (centres unmarked) [Example 14, N-((1-(3-(naphthalene-2-sulfonamido)-3-phenylpropanoyl)-4-(4-(pyridin-4-yl)piperazin-1-yl)piperidin-4-yl)methyl)acetamide] | 100 | 82 | – | –
Cc1cc(S(=O)(=O)N2CCCCC2CCC(=O)N2CCC(CNC(=O)Cc3ccccc3)(N3CCN(C)CC3)CC2)c(C)cc1Cl (centres unmarked) [Example 10, N-((1-(3-(1-(4-chloro-2,5-dimethylphenylsulfonyl)piperidin-2-yl)propanoyl)-4-(4-methylpiperazin-1-yl)piperidin-4-yl)methyl)-2-phenylacetamide] | 101 | 39 | – | –
CN1CCN(C2(CNC(=O)c3ccccn3)CCN(C(=O)CC(NS(=O)(=O)c3ccc4ccccc4c3)c3ccccc3)CC2)CC1 (centres unmarked) [Example 19, N-((4-(4-methylpiperazin-1-yl)-1-(3-(naphthalene-2-sulfonamido)-3-phenylpropanoyl)piperidin-4-yl)methyl)picolinamide] | 102 | 83 | – | –
CN1CCN(C2(CNC(=O)c3ccccn3)CCN(C(=O)CC3CCCCN3S(=O)(=O)c3cccc(C(F)(F)F)c3)CC2)CC1 (centres unmarked) [Example 18, N-((4-(4-methylpiperazin-1-yl)-1-(2-(1-(3-(trifluoromethyl)phenylsulfonyl)-piperidin-2-yl)acetyl)piperidin-4-yl)methyl)picolinamide] | 97 | 17 | – | –

More lines, now with the values ahead:

inhibition at 10 µM (human B1R) [%] | inhibition at 10 µM (B1R of rats) [%] | B1R antagonism, human [10 μM] % inhibition (human B1R; hydrochloride, 10 µM) [%] | B1R antagonism, rat [10 μM] % inhibition (B1R of rats; hydrochloride, 10 µM) [%] | Compound
104 | 101 | – | – | COc1cc(C)c(S(=O)(=O)N(C)CCOCC(=O)N2CCC(CNC(=O)c3cccnc3)(N3CCN(C)CC3)CC2)c(C)c1 [Example 32, N-((1-(2-(2-(4-methoxy-N,2,6-trimethylphenylsulfonamido)ethoxy)acetyl)-4-(4-methylpiperazin-1-yl)piperidin-4-yl)methyl)nicotinamide]
100 | 80 | – | – | CN1CCN(C2(CNC(=O)c3ccncc3)CCN(C(=O)COCC3CCc4ccccc4N3S(=O)(=O)c3ccc(Cl)c(Cl)c3)CC2)CC1 (centres unmarked) [Example 30, N-((1-(2-((1-(3,4-dichlorophenylsulfonyl)-1,2,3,4-tetrahydroquinolin-2-yl)methoxy)acetyl)-4-(4-methylpiperazin-1-yl)piperidin-4-yl)methyl)-isonicotinamide]
– | – | 100 | 97 | COc1cc(C)c(S(=O)(=O)N(C)CCOCC(=O)N2CCC(CNC(=O)c3ccncc3)(N3CCN(C)CC3)CC2)c(C)c1 [Example 48, N-((1-(2-(2-(4-Methoxy-N,2,6-trimethylphenylsulfonamido)ethoxy)acetyl)-4-(4-methylpiperazin-1-yl)piperidin-4-yl)methyl)isonicotinamide hydrochloride]
102 | 102 | – | – | COc1cc(C)c(S(=O)(=O)N2CCCCC2COCC(=O)N2CCC(CNC(=O)c3ccncc3)(N3CCN(C)CC3)CC2)c(C)c1 (centres unmarked) [Example 28, N-((1-(2-((1-(4-methoxy-2,6-dimethylphenylsulfonyl)piperidin-2-yl)methoxy)acetyl)-4-(4-methylpiperazin-1-yl)piperidin-4-yl)methyl)-isonicotinamide]
